In patent US8507506B2, “Theophylline derivative inhibits osteoporosis” (Kaohsiung Medical University, priority 2011, dated 2013):

Legend:
Type in all cases: cell-based
[1] = tested on: TRAP activity of RAW264.7 cells induced by RANKL; assay: TRAP activity assay; details: 10 ng/ml RANKL for 5 days, 10 μM
Protocol: 10^3 cells were plated per well in 96-well plates. […] When the reaction fluid became yellow, 0.1 M, 100 μl/well NaOH was added to terminate the reaction, and OD405 was examined in 37° C. b) 3 μl/well supernatant was examined by Bio-Red DC Protein Assay to detect the protein concentration.

RAW264.7 cells [2] = assay: MTT assay, proliferation induced by RANKL; details: RAW264.7, 10 μM
Protocol: Cells were plated onto 96-well plates at a density of 10^3 cells per well. After 24 hours incubation, the different concentrations of the different drugs were administrated into the plates. […] Subsequently, the medium was removed, and 100 μl/well isopropanol was added to solved formazan. The plates were shaken for 15 minutes and stood for 15 minutes, and then the absorbance was measured at wavelength of 540 nm and 630 nm. The ratio of the absorbance of treated cells relative to that of the control cells was calculated and expressed as a percentage of cell survival.

RAW264.7 cells [3] = assay: BrdU assay, proliferation induced by RANKL; details: RAW264.7, 10 μM
Protocol: The BrdU assay was followed the instructions of Cell Proliferation ELISA BrdU kit. 10^3 cells were plated per well in 96-well plates. […] After washing in wash buffer for three times, 100 μl/well Substrate reaction was added and incubated for 30 minutes at room temperature.

| Compound | TRAP activity induced by RANKL [1] | cell proliferation induced by RANKL (MTT assay) (RAW264.7 cells [2]) | cell proliferation induced by RANKL (BrdU assay) (RAW264.7 cells [3]) |
| --- | --- | --- | --- |
| CCCc1nn(C)c2c(=O)[nH]c(-c3cc(S(=O)(=O)N4CCN(C)CC4)ccc3OCC)nc12 [sildenafil] | have no obviously inhibiting effect on TRAP activity induced by RANKL | – | – |
| Cn1c(=O)c2[nH]cnc2n(C)c1=O [theophylline] | have no obviously inhibiting effect on TRAP activity induced by RANKL | have no previous inhibiting effect on cell proliferation induced by RANKL | have no previous inhibiting effect on cell proliferation induced by RANKL |
